From US20180117150A1, “Combination Therapies for CD38-Positive Hematological Malignances with ANTI-CD38 Antibodies and Cyclophosphamide” (Janssen Biotech, Inc., priority 2016, published 2018)
Like-named read-outs stand apart in the source and are kept apart here.

How the values were obtained:
[1] = tested on: MM1S cells; assay: Daratumumab-mediated MM1S tumor cell clearance in co-culture with conditioned THP-1 macrophages (ADCP assay); assay type: cell-based; conditions: for daratumumab-mediated tumor cell killing by macrophages (% specific MM1S cell clearance): THP-1 conditioned 48 hours with media of treated MM1S, 1 μg/ml daratumumab, E:T 2:1, 18 hours, FIG. 4
Procedure: FIG. 4 illustrates the level of MM1S tumor cell clearance in co-culture of MM1S cells and THP-1 macrophages. Prior to initiation of co-cultures, THP-1 cells were cultured 48 hours in conditioned media generated from untreated MM1S tumor cells or MM1S cells treated with lenalidomide (FIG. 4A), bortezomib (FIG. 4B) or cyclophosphamide (CTX) alone or in combination with bortezomib or lenalidomide (FIG. 4C). MM1S cells were stained with calcein and incubated with daratumumab or IgG1 isotype control ([…]) and co-culture with THP-1 cells at a 2:1 effector to target ratio for 18 hours. Cell frequency was determined using the Accuri C6 (Right). The % specific cell clearance was calculated by the following formula:
100−100*(The frequency of calcein stained MM1S cells in the presence of 1 μg/ml daratumumab/
The frequency of calcein stained MM1S cells in the presence of Isotype control).
Co-cultures of MM1S and THP-1 cells were incubated in the presence of cytochalasin to assess if daratumumab mediated MM1S killing by ADCP. […] FIG. 5 illustrates the level of daratumumab-mediated tumor cell clearance in co-cultures of MM1S and THP-1 cells. Prior to initiation of co-cultures, THP-1 cells were cultured 48 hours in conditioned media generated from untreated MM1S tumor cells or MM1S cells treated with lenalidomide (FIG. 5A) or cyclophosphamide alone or in combination with lenalidomide or bortezomib (FIG. 5B) in the absence or presence of 1 μg/ml cytochalasin D. The % specific cell clearance was calculated by the following formula: […]

[2] = tested on: MM1S cells; assay type: cell-based, human; conditions: for proportion of tumour cell clearance accounted for by ADCP: ± 1 μg/ml cytochalasin D, n=1
Procedure: Antibody Dependant cellular phagocytosis (ADCP): To determine the number of macrophages per sample, 50 μl of 5×10^6 cells/mL concentration of MC isolated from PB and BM were diluted using 150 μl FACS buffer. Based on forward and side scatter profiles, the total number of macrophages were determined by timed acquisition events per unit volume using an Accuri™ C6. […] Cells were washed, incubated with mouse anti-human CD45-APC (BD Biosciences, San Jose, CA) and mouse anti-human CD14-PerCP-Cy5.5 (Miltenyi Biotech, Cologne, Germany) for 15 mins, then washed and re-suspended in 200 μl FACS buffer for sample acquisition. Macrophage and MM1S cells were gated using CFSE+ and CD45+CD14+ cells gating. Cell frequency was determined using the BD Canto IITM flow cytometer. Antibody-dependent phagocytosis was assessed and quanti?ed as follows: Phagocytosis was quanti?ed by frequency of remaining target cells (CFSE positive) with and without Ab treatment or isotype control. […] ADCP mediated clearance was calculated using the following formula: 100-100*(Proportion of live Dara-treated MM1S cells in untreated macrophage co-culture/ Proportion of live Dara-treated MM1S cells in CytoD conditioned macrophage co-culture).

[3] = tested on: CD47 expression on multiple myeloma cells (MM1S); assay: Flow cytometry of cell surface CD47 expression on treated MM1S cells; conditions: 24 hours after treatment, CTX 2.5, 5, 10 μM, CTX 10 μM with Bort 1 nM or Len 1 μM, FIG. 2C
Procedure: (§1) Cells: The multiple myeloma cell line, MM1S, was sub-cultured in RPMI 1640 media supplemented with 10% FBS and 50 IU/ml penicillin and 50 μg/ml Streptomycin. […] THP-1 cells were sub-cultured in RPMI 1640 media supplemented with 10% FBS and 50 IU/ml Penicillin and 50 μg/ml streptomycin. Cells were plated at a cell density of 2×10^5 cells/ml for experiments. […] Fresh media was added and the cells were further incubated for 24 hours after collecting the conditioned media. […] All antibodies were purchased from BD Pharmingen™ unless otherwise stated. Cells were stained with anti-CD38 (APC-conjugated) and anti-CD47 (FITC-conjugated, eBiosciences) antibodies and the level of expression of CD38 and CD47 was assessed. Sytox advanced reagents were used to assess cell death. Cells were analysed by flow cytometry. Sytox positive cells were excluded from analysis. The mean fluorescent intensity was calculated by expressing the fluorescent intensity of each sample relative to the cell size. […] FcγRI and FcγRlla/b expression was assessed by flow cytometry 48 hours later using anti-FcγRI (APC-conjugated) and anti- FcγRIIa/b (PE-conjugated) antibodies. The mean fluorescent intensity was calculated by expressing the fluorescent intensity of each sample relative to the cell size and subtracting the values for the isotype control/unstained samples.

[4] = tested on: CD64 (FcγRI) expression on THP-1 macrophages; assay: CD64 (FcγRI) expression on THP-1 macrophages incubated in conditioned media from treated MM1S cells; conditions: THP-1 cells, 48 hours in conditioned media from treated MM1S cells; FIG. 3A
Procedure: as §1

[5] = tested on: CD47 on CD45-CD19-CD138+ plasma cells; conditions: 24 hour treatment vs baseline
Procedure: Ethics: Pre-screened newly diagnosed MM patients were enrolled into the sub-clinical study by informed consent according to predetermined protocols and standard operating procedures for sample draw and included extraction of relevant details from medical records.
Samples Isolation: Isolation of mononuclear cells (MC) from PB and BM aspirates were performed by layering 3mL EDTA-anti-coagulated sample over 3mL endotoxin-free Ficoll Plaque density-gradient medium (GE Healthcare, Little Chalfont, United Kingdom) in 15-mL Falcon tubes (Sarstedt, North Rhine-Westphalia, Niimbrecht, Germany), and centrifuged at 420 relative centrifugal force (RCF) for 22 minutes at 4° C. without braking. The “buffy coat” layer was isolated and washed twice with Fluorescence-activated cell sorting (FACS buffer) [2% foetal calf serum (Lonza, Basel, Switzerland), PBS and 0.05% NaN3 (Sigma-Aldrich, St. Louis, Mo., USA)]. […] Cells were counted using a haemocytometer and 5×10^5 cells per sample were stained for phenotypic characterisation by flow cytometry
Characterisation Studies: Plasma cells: Cell surface expression of CD38, CD47, CD319 (SLAMF7), B-cell maturation antigen (BCMA), MIC A/B, Programmed death-ligand (PDL) 1, PDL2, CD54, CD11a and CD48 were analysed on CD45-CD19-CD138+ Plasma cells by flow cytometry. […]

[6] = tested on: CD32 (FcγRIIa/b) expression on THP-1 macrophages; assay: CD32 (FcγRIIa/b) expression on THP-1 macrophages incubated in conditioned media from treated MM1S cells; conditions: THP-1 cells, 48 hours in conditioned media from treated MM1S cells; FIG. 3B
Procedure: as §1

[7] = tested on: CD38 expression on multiple myeloma cells (MM1S); assay: Flow cytometry of cell surface CD38 expression on treated MM1S cells; conditions: 48 hours after treatment, CTX 2.5, 5, 10 μM, CTX 10 μM with Bort 1 nM or Len 1 μM, FIG. 1
Procedure: as §1

Nc1cccc2c1CN(C1CCC(=O)NC1=O)C2=O (centres unmarked) [lenalidomide]
daratumumab-mediated tumor cell killing by macrophages (% specific MM1S cell clearance) [1]: potentiated
daratumumab-mediated tumor cell killing by macrophages (% specific MM1S cell clearance) ([1]; listed as lenalodomide): augmented

C=C1[C@@H](C)[C@H]2[C@H](Cc3ccccc3)NC(=O)[C@]23[C@H](OC(C)=O)/C=C/[C@@](C)(O)C(=O)[C@@H](C)C/C=C/[C@H]3[C@@H]1O [Cytochalasin D]
daratumumab-mediated tumor cell clearance in the presence of cytochalasin D ([1]; 1 μg/ml cytochalasin D in MM1S/THP-1 co-cultures, FIG. 5): reduced

CC(C)C[C@H](NC(=O)[C@H](Cc1ccccc1)NC(=O)c1cnccn1)B(O)O [bortezomib]
daratumumab-mediated tumor cell killing by macrophages (% specific MM1S cell clearance) [1]: potentiated

daratumumab
proportion of tumour cell clearance accounted for by ADCP ([2]; BM macrophages prior to treatment, FIG. 8C): > 15%
difference between Dara and Isotype within the ADCP assay ([2]; patient had received Daratumumab 16 mg/kg infusion, FIG. 8C): minimal difference

O=P1(N(CCCl)CCCl)NCCCO1 (centres unmarked) [cyclophosphamide]
mean fluorescence intensity (MFI) of cell surface CD47 expression [3]: reduced
MFI of cell surface CD64 (FcγRI) expression [4]: induced
proportion of tumour cell clearance accounted for by ADCP ([2]; BM macrophages 24 hours after treatment with cyclophosphamide, FIG. 8C): > 25%
tumour cytotoxicity by macrophages in co-culture of PB or BM-derived macrophages and multiple myeloma cells ([2]; patient macrophages 24 hours after treatment vs prior to treatment): augmented
CD47 surface expression (MFI) on plasma cells, bone marrow ([5]; BM, n=3, P=0.0555, FIG. 6B): decreased
CD47 surface expression (MFI) on plasma cells, peripheral blood ([5]; PB, n=3, cyclophosphamide 150-300 mg/m^2, FIG. 6A): decreased
MFI of cell surface CD32 (FcγRIIa/b) expression [6]: induced
daratumumab-mediated tumor cell killing by macrophages (% specific MM1S cell clearance) [1]: potentiated
daratumumab-mediated tumor cell killing by macrophages (% specific MM1S cell clearance) ([1]; listed as Cyclophosphamide): augmented
mechanism of the potentiation of anti-myeloma activity of daratumumab ([1]; concluded from cytochalasin D inhibition, FIG. 5): dependent on macrophage mediated ADCP
mean fluorescence intensity (MFI) of cell surface CD38 expression [7]: induced
